In patent publication US8372864B2, “1-oxo-isoindoline-4-carboxamide and 1-oxo-1,2,3,4-tetrahydroisoquinoline-5-carboxamide derivatives, preparation and therapeutic use thereof” (Sanofi, priority 2007, dated 2013):
Structures can show the parent of a compound that is named as a salt.

Columns and labels:
[1] = molecular target: T1, purified recombinant form of human BACE1 aspartyl protease (Homo sapiens, UniProt P56817); test: in vitro inhibition of β-secretase (BACE1) activity, FRET cleavage of fluorogenic peptide substrate FS1; type: biochemical; settings: purified enzyme 10 nM, substrate FS1 5 μM, sodium acetate buffer pH 4.5, 37° C., 45 minutes; read-out: IC50 (concentration of product giving 50% inhibition of the enzyme activity)
T1 construct: hexahistidine (C); made in house; host or cells: Drosophila cells
Description: The tests consisted in measuring the in vitro inhibition of the β-secretase activity by the compounds of the invention.
The β-secretase activity measured corresponds to that of a purified recombinant form of human BACE1 aspartyl protease (the latter comprising a hexahistidine tag at the C-terminal position) produced by expression in Drosophila cells. The purified enzyme is conditioned in TRIS buffer (18 mM) at pH 7.5 containing NaCl (0.45M), MnCl2 (0.9 mM), CaCl2 (0.9 mM), α-D-methylmannoside and 10% glycerol, and stored at −80° C. until use.
The BACE1 activity is measured from the cleavage of a fluorogenic peptide substrate, known as FS1, described originally by Ermolieff et Coll. (2000, Biochemistry, 39, 12450-12456), and based on the principle of fluorescence resonance energy transfer (FRET); the cleavage of the FS1 peptide is measured from the increase of the fluorescent signal emitted by the EDANS (or 5-[(2-aminoethyl)amino]naphthalene-[…]) group. The test is carried out in a 96-well microplate in order to determine the inhibition of the enzyme activity by the products of the invention. The substrate FS1 is solubilized to a concentration of 1 mM in 100% dimethylsulfoxide (DMSO) and stored at −20° C. until use. The dilutions of the products to be tested are prepared in DMSO starting from a 10 mM stock solution. The products of the invention, at final concentrations of 0.003 to 10 μM are incubated at 37° C. with the substrate FS1 (final concentration of 5 μM) and the purified enzyme (final concentration of 10 nM) in the sodium acetate buffer (0.1M), pH 4.5 containing 0.02% of CHAPS detergent and 200 mM NaCl for 45 minutes. […] When the incubation is finished, the fluorescence is measured in a spectrofluorimeter, at the excitation wavelength of 355 nm and emission wavelength of 509 nm. For each product concentration tested, the fluorescent signal is compared to the maximum signal obtained when the substrate FS1 is only incubated with the enzyme.
The inhibitory activity of the products of the invention is then evaluated by the measurement of the IC50 (concentration of product giving 50% inhibition of the enzyme activity) using a non-linear regression analysis (computer application software XLfit, IDBS™).

T1 sequence (P56817 46-501): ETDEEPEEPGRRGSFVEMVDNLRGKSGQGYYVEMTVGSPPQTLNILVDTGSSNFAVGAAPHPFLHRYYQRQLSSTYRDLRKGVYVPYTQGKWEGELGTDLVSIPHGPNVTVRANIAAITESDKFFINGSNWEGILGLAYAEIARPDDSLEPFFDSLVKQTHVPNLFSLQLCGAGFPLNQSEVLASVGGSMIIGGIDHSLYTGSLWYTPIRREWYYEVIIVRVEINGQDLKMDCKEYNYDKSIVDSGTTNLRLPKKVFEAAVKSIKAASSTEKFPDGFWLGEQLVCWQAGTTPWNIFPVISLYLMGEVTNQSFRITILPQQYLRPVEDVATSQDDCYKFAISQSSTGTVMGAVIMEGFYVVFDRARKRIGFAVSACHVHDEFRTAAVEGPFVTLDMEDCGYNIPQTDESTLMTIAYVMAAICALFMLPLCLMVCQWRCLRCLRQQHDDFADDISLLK

melting point [°C] | IC50 [1] [nM] | SMILES
196 |  | CCCC(CCC)N1CCc2c(C(=O)N[C@@H](Cc3cc(F)cc(F)c3)[C@H](O)CNC3(c4cccc(C(F)(F)F)c4)CC3)cc(C(F)(F)F)cc2C1=O.Cl
 | 770 | CCCC(CCC)N1Cc2c(C(=O)N[C@@H](Cc3ccccc3)[C@H](O)CNCc3cccc(C(F)(F)F)c3)cccc2C1=O [Compound 1, N-[(1S,2R)-1-benzyl-2-hydroxy-3-{[3-(trifluoromethyl)benzyl]amino}propyl]-1-oxo-2-(1-propylbutyl)isoindoline-4-carboxamide hydrochloride (1:1)]
165 |  | CCCCCN1CCc2c(C(=O)N[C@@H](Cc3cc(F)cc(F)c3)[C@H](O)CNC3(c4cccc(C(F)(F)F)c4)CC3)cccc2C1=O.Cl
174 |  | CCCC(CCC)N1CCc2c(C(=O)N[C@@H](Cc3ccccc3)[C@H](O)CNC3(c4cccc(C(F)(F)F)c4)CC3)cccc2C1=O.Cl
178 |  | Cl.O=C(N[C@@H](Cc1cc(F)cc(F)c1)[C@H](O)CNC1(c2cccc(C(F)(F)F)c2)CC1)c1cccc2c1CCN(Cc1ccccc1)C2=O
172 |  | CCCC(CCC)N1CCc2c(C(=O)N[C@@H](Cc3cc(F)cc(F)c3)[C@H](O)CNC3(c4cccc(C(F)(F)F)c4)CC3)cccc2C1=O.Cl
 | 390 | CCCC(CCC)N1CCc2c(C(=O)N[C@@H](Cc3cc(F)cc(F)c3)[C@H](O)CNC3(c4cccc(C(F)(F)F)c4)CC3)cc(-c3cccc(C#N)c3)cc2C1=O [Compound 16, N-[(1S,2R)-1-(3,5-difluorobenzyl)-2-hydroxy-3-({1-[3-(trifluoromethyl)phenyl]cyclopropyl}amino)propyl]-7-(3-cyanophenyl)-1-oxo-2-(1-propylbutyl)-1,2,3,4-tetrahydroisoquinoline-5-carboxamide hydrochloride (1:1)]
 | 630 | CCCC(CCC)N1CCc2c(C(=O)N[C@@H](Cc3cc(F)cc(F)c3)[C@H](O)CNC3(c4cccc(C(F)(F)F)c4)CC3)cc(-c3ccccc3C#N)cc2C1=O [Compound 17, N-[(1S,2R)-1-(3,5-difluorobenzyl)-2-hydroxy-3-({1-[3-(trifluoromethyl)phenyl]cyclopropyl}amino)propyl]-7-(2-cyanophenyl)-1-oxo-2-(1-propylbutyl)-1,2,3,4-tetrahydroisoquinoline-5-carboxamide hydrochloride (1:1)]
157 |  | CC(c1ccc(F)cc1)N1CCc2c(C(=O)N[C@@H](Cc3cc(F)cc(F)c3)[C@H](O)CNC3(c4cccc(C(F)(F)F)c4)CC3)cccc2C1=O.Cl (some centres unmarked)
194 |  | CCCC(CCC)N1Cc2c(C(=O)N[C@@H](Cc3cc(F)cc(F)c3)[C@H](O)CNC3(c4cccc(C(F)(F)F)c4)CC3)cc(N(C)S(C)(=O)=O)cc2C1=O.Cl
 | 48 | CCCC(CCC)N1CCc2c(C(=O)N[C@@H](Cc3cc(F)cc(F)c3)[C@H](O)CNC3(c4cccc(C(F)(F)F)c4)CC3)cc(N(C)S(C)(=O)=O)cc2C1=O [Compound 9, N-[(1S,2R)-1-(3,5-difluorobenzyl)-2-hydroxy-3-({1-[3-(trifluoromethyl)phenyl]cyclopropyl}amino)propyl]-7-[methyl(methylsulfonyl)amino]-1-oxo-2-(1-propylbutyl)-1,2,3,4-tetrahydroisoquinoline-5-carboxamide hydrochloride (1:1)]
